Reference: patent publication US20230322846A9, “NEUROACTIVE STEROIDS AND THEIR METHODS OF USE” (SAGE THERAPEUTICS, INC., priority 2018, published 2023)

What was measured:
[1] = biological target: human GABAA receptors composed of the α1β2γ2 subunits (Homo sapiens (Human), UniProt P14867+P18507+P47870); assay: α1β2γ2 SyncroPatch automated patch clamp assay; type: cell-based; settings: for EC50: HEK cells, potentiation of submaximal GABA current, clamped at −120 mV; for α1β2γ2 EMAX: peak current after GABA+compound divided by peak current after GABA alone
Procedure: (§1) The SyncroPatch 384PE (Nanion, Germany) automated patch clamp platform was used to obtain recordings from human embryonic kidney cells stably expressing human GABAA receptors composed of the α1β2γ2 and α4β3δ subunits. Cells were bathed in an extracellular solution containing: 140 mM NaCl, 4 mM KCl, 2 mM CaCl2), 1 mM MgCl2, 10 mM HEPES, 5 mM glucose and 0.1% DMSO. Solution was maintained at pH 7.4 with NaOH and 300 mOsm/L. Chips with multi-hole (4×) medium resistance (2-3M) are used for the recombinant cell line experiments. Once harvested, cells are stored in extracellular solution set to 10° C. in the cell hotel with a minimum shaking speed of 200 rpm before addition to the chip at the beginning of each experiment. Whole cell patch clamp recordings were made using an intracellular solution containing: 90 mM KCl, 50 mM KF, 1.5 mM MgCl2, 11.1 mM EGTA and 10 mM HEPES, 2 mM NaATP, maintained at pH 7.2 with KOH. Currents are leak corrected (using P/2 leak correction protocol) and sampled at 5 kHz. Cells were clamped at −120 mV. After establishing a stable baseline, a submaximal concentration of GABA (3-5 μM for cells expressing α1β2γ2 and 10 μM for cells expressing […]) was applied at a rate of 10 μl/second, immediately followed by application of GABA+compound (10 μl/second) at a single concentration of compound per cell. Compounds were tested at six concentrations (0.029, 0.12, 0.47, 1.88, 7.5, and 30 μM) in n=8-12 cells per concentration. Compound effect was determined by dividing peak current amplitude after GABA+compound by peak current amplitude after GABA alone. EC50 and Emax values were determined from average values for each concentration.

[2] = biological target: [35S]-TBPS binding, rat brain cortical membranes; assay: Steroid inhibition of [35S]-TBPS binding; settings: 3 nM [35S]-TBPS, in the presence of 5 mM GABA
Summary of the method: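 In the presence of […], compounds (DMSO 0.5% final) competed with 3 nM [35S]-TBPS for Sprague-Dawley rat cortical membranes, pH 7.4 phosphate buffer, 90 min, room temperature. Filtration and scintillation counting; specific binding defined by […]; IC50 and maximal inhibition fitted per experiment, averaged as mean ± SEM.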

[3] = biological target: human GABAA receptors composed of the α4β3δ subunits (Homo sapiens (Human), UniProt O14764+P28472+P48169); assay: α4β3δ SyncroPatch automated patch clamp assay; type: cell-based; settings: for EC50: HEK cells, potentiation of submaximal GABA current, clamped at −120 mV; for α4β3δ EMAX: peak current after GABA+compound divided by peak current after GABA alone
Procedure: as §1

Chain of human GABAA receptors composed of the α1β2γ2 subunits (P14867 28-456 limits assumed): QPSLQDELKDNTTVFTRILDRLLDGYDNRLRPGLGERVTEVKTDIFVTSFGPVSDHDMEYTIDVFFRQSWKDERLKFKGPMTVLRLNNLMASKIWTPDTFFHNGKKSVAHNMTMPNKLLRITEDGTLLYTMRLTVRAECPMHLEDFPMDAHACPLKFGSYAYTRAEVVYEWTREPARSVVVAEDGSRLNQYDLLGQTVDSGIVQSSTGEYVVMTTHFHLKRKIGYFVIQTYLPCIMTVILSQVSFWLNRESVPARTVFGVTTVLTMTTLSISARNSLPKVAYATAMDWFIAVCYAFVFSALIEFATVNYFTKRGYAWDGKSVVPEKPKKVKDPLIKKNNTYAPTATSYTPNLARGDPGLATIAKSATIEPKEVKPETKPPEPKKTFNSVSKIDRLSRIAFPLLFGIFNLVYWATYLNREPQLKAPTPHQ
Chain of human GABAA receptors composed of the α1β2γ2 subunits (P47870 25-512 limits assumed): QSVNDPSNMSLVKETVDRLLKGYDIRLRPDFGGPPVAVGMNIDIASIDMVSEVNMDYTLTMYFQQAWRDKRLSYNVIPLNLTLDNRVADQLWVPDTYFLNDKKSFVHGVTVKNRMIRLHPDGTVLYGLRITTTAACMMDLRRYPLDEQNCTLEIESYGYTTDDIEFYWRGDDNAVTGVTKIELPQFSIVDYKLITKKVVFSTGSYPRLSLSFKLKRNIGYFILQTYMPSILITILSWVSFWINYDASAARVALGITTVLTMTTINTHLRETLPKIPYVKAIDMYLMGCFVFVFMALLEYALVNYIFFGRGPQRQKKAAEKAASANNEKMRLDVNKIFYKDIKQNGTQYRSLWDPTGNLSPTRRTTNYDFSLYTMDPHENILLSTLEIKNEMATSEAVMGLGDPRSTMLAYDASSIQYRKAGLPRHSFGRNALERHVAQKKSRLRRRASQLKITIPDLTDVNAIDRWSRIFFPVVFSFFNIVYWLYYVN
Chain of human GABAA receptors composed of the α1β2γ2 subunits (P18507 40-475 limits assumed): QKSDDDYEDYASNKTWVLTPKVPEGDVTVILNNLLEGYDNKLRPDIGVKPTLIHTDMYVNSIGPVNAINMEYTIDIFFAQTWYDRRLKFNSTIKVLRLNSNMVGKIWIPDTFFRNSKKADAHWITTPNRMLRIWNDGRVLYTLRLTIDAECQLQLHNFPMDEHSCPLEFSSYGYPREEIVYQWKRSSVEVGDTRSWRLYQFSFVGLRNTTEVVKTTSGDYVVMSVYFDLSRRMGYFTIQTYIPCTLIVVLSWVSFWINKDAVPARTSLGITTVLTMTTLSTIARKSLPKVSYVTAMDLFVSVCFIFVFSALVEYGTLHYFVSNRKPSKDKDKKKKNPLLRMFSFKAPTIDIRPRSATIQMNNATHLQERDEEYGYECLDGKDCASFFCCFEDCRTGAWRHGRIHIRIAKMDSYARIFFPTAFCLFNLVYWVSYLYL
Chain of human GABAA receptors composed of the α4β3δ subunits (P48169 36-554 limits assumed): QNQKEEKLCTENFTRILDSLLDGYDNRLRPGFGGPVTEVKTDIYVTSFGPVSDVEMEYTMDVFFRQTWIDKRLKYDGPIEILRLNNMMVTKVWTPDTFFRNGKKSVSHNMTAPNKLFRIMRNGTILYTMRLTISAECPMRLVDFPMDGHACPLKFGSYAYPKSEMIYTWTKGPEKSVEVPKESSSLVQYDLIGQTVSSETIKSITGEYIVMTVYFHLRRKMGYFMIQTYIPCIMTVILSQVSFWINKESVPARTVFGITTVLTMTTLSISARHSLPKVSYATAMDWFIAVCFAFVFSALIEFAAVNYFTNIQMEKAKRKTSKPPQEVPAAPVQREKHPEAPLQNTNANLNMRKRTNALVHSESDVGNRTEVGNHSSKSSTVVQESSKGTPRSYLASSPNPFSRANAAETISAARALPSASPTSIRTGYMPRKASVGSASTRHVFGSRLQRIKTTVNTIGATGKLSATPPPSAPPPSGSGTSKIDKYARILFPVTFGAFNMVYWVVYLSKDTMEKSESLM
Chain of human GABAA receptors composed of the α4β3δ subunits (P28472 26-473 limits assumed): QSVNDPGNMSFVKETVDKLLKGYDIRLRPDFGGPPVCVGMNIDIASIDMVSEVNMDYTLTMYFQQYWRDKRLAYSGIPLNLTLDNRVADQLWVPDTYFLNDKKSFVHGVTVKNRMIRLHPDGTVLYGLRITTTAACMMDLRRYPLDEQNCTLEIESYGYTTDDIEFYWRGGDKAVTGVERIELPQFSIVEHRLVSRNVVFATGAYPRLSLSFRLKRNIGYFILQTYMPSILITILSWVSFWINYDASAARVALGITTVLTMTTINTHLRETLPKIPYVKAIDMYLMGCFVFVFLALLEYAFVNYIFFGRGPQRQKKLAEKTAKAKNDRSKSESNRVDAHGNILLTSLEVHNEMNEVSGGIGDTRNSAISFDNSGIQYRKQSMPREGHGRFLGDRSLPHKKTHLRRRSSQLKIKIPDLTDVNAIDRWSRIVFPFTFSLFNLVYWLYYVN
Chain of human GABAA receptors composed of the α4β3δ subunits (O14764 17-452 limits assumed): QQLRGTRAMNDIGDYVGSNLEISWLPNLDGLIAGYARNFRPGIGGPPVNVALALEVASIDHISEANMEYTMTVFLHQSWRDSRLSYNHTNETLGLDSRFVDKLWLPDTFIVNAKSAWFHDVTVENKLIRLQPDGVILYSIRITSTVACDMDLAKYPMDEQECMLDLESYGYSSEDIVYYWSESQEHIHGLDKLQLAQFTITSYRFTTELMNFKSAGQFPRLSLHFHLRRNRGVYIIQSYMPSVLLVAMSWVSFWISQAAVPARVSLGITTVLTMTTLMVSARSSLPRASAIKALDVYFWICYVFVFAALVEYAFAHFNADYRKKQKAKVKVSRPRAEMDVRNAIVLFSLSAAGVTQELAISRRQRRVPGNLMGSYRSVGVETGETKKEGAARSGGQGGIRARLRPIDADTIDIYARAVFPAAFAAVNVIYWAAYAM

## CC[C@@]1(O)CC[C@@]2(C)[C@H](CC[C@@H]3[C@@H]2CC[C@]2(C)[C@@H]([C@@H](C)Cn4ccc(C#N)n4)CC[C@@H]32)C1 [Example 61, 1-((R)-2-((3R,5R,8R,9S,10S,13S,14S,17R)-3-ethyl-3-hydroxy-10,13-dimethylhexadecahydro-1H-cyclopenta[a]phenanthren-17-yl)propyl)-1H-pyrazole-3-carbonitrile]
[1]
  EC50: < 200 nM
  α1β2γ2 EMAX: C (C indicates an Emax response ≥10)
[2]
  IC50: < 100 nM
[3]
  EC50: < 200 nM
  α4β3δ EMAX: A (A indicates an Emax response <30)

## CCC[C@@]1(O)CC[C@H]2[C@H](CC[C@@H]3[C@@H]2CC[C@]2(C)[C@@H]([C@@H](C)Cn4cc(C#N)cn4)CC[C@@H]32)C1 [Example 65, 1-((R)-2-((3R,5R,8R,9R,10S,13S,14S,17R)-3-hydroxy-13-methyl-3-propylhexadecahydro-1H-cyclopenta[a]phenanthren-17-yl)propyl)-1H-pyrazole-4-carbonitrile]
[1]
  EC50: ≥ 1000 nM
  α1β2γ2 EMAX: A (A indicates an Emax response <8)
[2]
  IC50: < 100 nM
[3]
  EC50: < 200 nM
  α4β3δ EMAX: B (B indicates an Emax response 30 to <45)

## CCOC[C@@]1(O)CC[C@H]2[C@H](CC[C@@H]3[C@@H]2CC[C@]2(C)[C@@H]([C@@H](C)N(C)S(=O)(=O)c4cccc(C#N)n4)CC[C@@H]32)C1 [Example 72]
[1]
  EC50: 200 to 1000 nM
  α1β2γ2 EMAX: C (C indicates an Emax response ≥10)
[2]
  IC50: < 100 nM
[3]
  EC50: 200 to 1000 nM
  α4β3δ EMAX: C (C indicates an Emax response ≥45)

## CCOC[C@@]1(O)CC[C@H]2[C@H](CC[C@@H]3[C@@H]2CC[C@]2(C)[C@@H]([C@@H](C)NC(=O)c4ccc(F)cc4F)CC[C@@H]32)C1 [Example 132]
[1]
  EC50: ≥ 1000 nM
  α1β2γ2 EMAX: C (C indicates an Emax response ≥10)
[2]
  IC50: < 100 nM
[3]
  EC50: ≥ 1000 nM
  α4β3δ EMAX: B (B indicates an Emax response 30 to <45)

## CCOC[C@@]1(O)CC[C@H]2[C@H](CC[C@@H]3[C@@H]2CC[C@]2(C)[C@@H]([C@@H](C)Nc4cccc(N5CCCC5=O)n4)CC[C@@H]32)C1 [Example 263]
[1]
  EC50: 200 to 1000 nM
  α1β2γ2 EMAX: A (A indicates an Emax response <8)
[2]
  IC50: < 100 nM
[3]
  EC50: 200 to 1000 nM
  α4β3δ EMAX: A (A indicates an Emax response <30)

## CCOC[C@@]1(O)CC[C@H]2[C@H](CC[C@@H]3[C@@H]2CC[C@]2(C)[C@@H]([C@H](C)Cn4cc(C#N)cn4)CC[C@@H]32)C1 [Example 270, 1-((S)-2-((3R,5R,8R,9R,10S,13S,14S,17R)-3-(ethoxymethyl)-3-hydroxy-13-methylhexadecahydro-1H-cyclopenta[a]phenanthren-17-yl)propyl)-1H-pyrazole-4-carbonitrile]
[1]
  EC50: 200 to 1000 nM
  α1β2γ2 EMAX: C (C indicates an Emax response ≥10)
[2]
  IC50: < 100 nM
[3]
  EC50: 200 to 1000 nM
  α4β3δ EMAX: C (C indicates an Emax response ≥45)

## CC[C@@]1(O)CC[C@H]2[C@H](CC[C@@H]3[C@@H]2CC[C@]2(C)[C@@H]([C@@H](C)Cn4ccc(C#N)n4)CC[C@@H]32)C1 [Example 272, 1-((R)-2-((3R,5R,8R,9R,10S,13S,14S,17R)-3-ethyl-3-hydroxy-13-methylhexadecahydro-1H-cyclopenta[a]phenanthren-17-yl)propyl)-1H-pyrazole-3-carbonitrile]
[1]
  EC50: < 200 nM
  α1β2γ2 EMAX: C (C indicates an Emax response ≥10)
[2]
  IC50: < 100 nM
[3]
  EC50: < 200 nM
  α4β3δ EMAX: A (A indicates an Emax response <30)

## CC[C@@]1(O)CC[C@H]2[C@H](CC[C@@H]3[C@@H]2CC[C@]2(C)[C@@H]([C@H](C)Cn4cc(C#N)cn4)CC[C@@H]32)C1 [Example 276, 1-((S)-2-((3R,5R,8R,9R,10S,13S,14S,17R)-3-ethyl-3-hydroxy-13-methylhexadecahydro-1H-cyclopenta[a]phenanthren-17-yl)propyl)-1H-pyrazole-4-carbonitrile]
[1]
  EC50: 200 to 1000 nM
  α1β2γ2 EMAX: B (B indicates an Emax response 8 to <10)
[2]
  IC50: < 100 nM
[3]
  EC50: < 200 nM
  α4β3δ EMAX: A (A indicates an Emax response <30)

## CCOC[C@@]1(O)CC[C@@]2(C)[C@H](CC[C@@H]3[C@@H]2CC[C@]2(C)[C@@H]([C@H](C)Cn4ccc(C#N)n4)CC[C@@H]32)C1 [Example 278, 1-((S)-2-((3R,5R,8R,9S,10S,13S,14S,17R)-3-(ethoxymethyl)-3-hydroxy-10,13-dimethylhexadecahydro-1H-cyclopenta[a]phenanthren-17-yl)propyl)-1H-pyrazole-3-carbonitrile]
[1]
  EC50: < 200 nM
  α1β2γ2 EMAX: A (A indicates an Emax response <8)
[2]
  IC50: < 100 nM
[3]
  EC50: < 200 nM
  α4β3δ EMAX: A (A indicates an Emax response <30)

## CCOC[C@@]1(O)CC[C@@]2(C)[C@H](CC[C@@H]3[C@@H]2CC[C@]2(C)[C@@H]([C@@H](C)Cn4nccc4C#N)CC[C@@H]32)C1 [Example 280, 1-((R)-2-((3R,5R,8R,9S,10S,13S,14S,17R)-3-(ethoxymethyl)-3-hydroxy-10,13-dimethylhexadecahydro-1H-cyclopenta[a]phenanthren-17-yl)propyl)-1H-pyrazole-5-carbonitrile]
[1]
  EC50: < 200 nM
  α1β2γ2 EMAX: C (C indicates an Emax response ≥10)
[2]
  IC50: < 100 nM
[3]
  EC50: < 200 nM
  α4β3δ EMAX: B (B indicates an Emax response 30 to <45)

## CCOC[C@@]1(O)CC[C@H]2[C@H](CC[C@@H]3[C@@H]2CC[C@]2(C)[C@@H]([C@H](C)Cn4nccc4C#N)CC[C@@H]32)C1 [Example 286, 1-((S)-2-((3R,5R,8R,9R,10S,13S,14S,17R)-3-(ethoxymethyl)-3-hydroxy-13-methylhexadecahydro-1H-cyclopenta[a]phenanthren-17-yl)propyl)-1H-pyrazole-5-carbonitrile]
[1]
  EC50: < 200 nM
  α1β2γ2 EMAX: B (B indicates an Emax response 8 to <10)
[2]
  IC50: < 100 nM
[3]
  EC50: 200 to 1000 nM
  α4β3δ EMAX: A (A indicates an Emax response <30)

## CCOC[C@@]1(O)CC[C@H]2[C@H](CC[C@@H]3[C@@H]2CC[C@]2(C)[C@@H]([C@H](C)Cn4ccc(C#N)n4)CC[C@@H]32)C1 [Example 287, 1-((S)-2-((3R,5R,8R,9R,10S,13S,14S,17R)-3-(ethoxymethyl)-3-hydroxy-13-methylhexadecahydro-1H-cyclopenta[a]phenanthren-17-yl)propyl)-1H-pyrazole-3-carbonitrile]
[1]
  EC50: 200 to 1000 nM
  α1β2γ2 EMAX: B (B indicates an Emax response 8 to <10)
[2]
  IC50: < 100 nM
[3]
  EC50: 200 to 1000 nM
  α4β3δ EMAX: A (A indicates an Emax response <30)

## CCC[C@@]1(O)CC[C@H]2[C@H](CC[C@@H]3[C@@H]2CC[C@]2(C)[C@@H]([C@H](C)Cn4nnc(C)n4)CC[C@@H]32)C1 [Example 293, (3R,5R,8R,9R,10S,13S,14S,17R)-13-methyl-17-((S)-1-(5-methyl-2H-tetrazol-2-yl)propan-2-yl)-3-propylhexadecahydro-1H-cyclopenta[a]phenanthren-3-ol]
[1]
  EC50: ≥ 1000 nM
  α1β2γ2 EMAX: A (A indicates an Emax response <8)
[2]
  IC50: < 100 nM
[3]
  EC50: 200 to 1000 nM
  α4β3δ EMAX: A (A indicates an Emax response <30)

## CCC[C@@]1(O)CC[C@H]2[C@H](CC[C@@H]3[C@@H]2CC[C@]2(C)[C@@H]([C@@H](C)Cn4nnc(C)n4)CC[C@@H]32)C1 [Example 294, (3R,5R,8R,9R,10S,13S,14S,17R)-13-methyl-17-((R)-1-(5-methyl-2H-tetrazol-2-yl)propan-2-yl)-3-propylhexadecahydro-1H-cyclopenta[a]phenanthren-3-ol]
[1]
  EC50: 200 to 1000 nM
  α1β2γ2 EMAX: C (C indicates an Emax response ≥10)
[2]
  IC50: < 100 nM
[3]
  EC50: 200 to 1000 nM
  α4β3δ EMAX: B (B indicates an Emax response 30 to <45)

## CC(C)C[C@@]1(O)CC[C@H]2[C@H](CC[C@@H]3[C@@H]2CC[C@]2(C)[C@@H]([C@@H](C)Cn4cc(C#N)cn4)CC[C@@H]32)C1 [Example 299, 1-((R)-2-((3S,5R,8R,9R,10S,13S,14S,17R)-3-hydroxy-3-isobutyl-13-methylhexadecahydro-1H-cyclopenta[a]phenanthren-17-yl)propyl)-1H-pyrazole-4-carbonitrile]
[1]
  EC50: ≥ 1000 nM
[2]
  IC50: < 100 nM
[3]
  EC50: < 200 nM
  α4β3δ EMAX: B (B indicates an Emax response 30 to <45)
